Six compounds from ChEMBL document CHEMBL6103671, “Novel Piperazine Derivatives as Selective Antagonists of GluN2B-Containing NMDARs under Acidic pH Conditions” (ACS Med Chem Lett, 2025) can be followed below.

Holding throughout (type): cell-based
Test [1] in a line: Antagonist activity at human GluN1-1a/[…] receptor expressed in Xenopus laevis oocytes assessed as inhibition of glutamate/glycine-induced current at pH 6.9 with -40 mV holding potential by two-electrode voltage-clamp method. The conditions noted are these: Oocyte. On the technique in general: In two-electrode clamp one electrode senses voltage and the other passes current.

The subject of test [2] is Oocyte. Description: Selectivity ratio of IC50 for antagonist activity at human GluN1-1a/GluN2A receptor expressed in Xenopus laevis oocytes at pH 7.6 to antagonist activity at human GluN1-1a/GluN2A receptor expressed in Xenopus laevis oocytes at pH 6.9.
Test [3] in a line: Antagonist activity at human GluN1-1a/[…] receptor expressed in Xenopus laevis oocytes assessed as inhibition of glutamate/glycine-induced current at pH 7.6 with -40 mV holding potential by two-electrode voltage-clamp method. The conditions noted are these: Oocyte.

Consider `NC(=O)Nc1ccc(OC[C@H](O)CN2CCN(c3ccc(Cl)cc3)CC2)cc1`, for which the IC50 in test [1] came out at 19 nM; in test [3], 60 nM. Moreover, the Ratio IC50 in test [2] stood at 3.2.
For `NC(=O)Nc1ccc(OC[C@H](O)CN2CCN(c3ccc(Cl)c(Cl)c3)CC2)cc1`, in that order: 30 nM, 132 nM and 4.4.
For `O=C1CCc2cc(OC[C@@H](O)CN3CCN(c4ccc(C(F)(F)F)cc4)CC3)ccc2N1`, in that order: 111 nM, 717 nM and 6.5.
With `NC(=O)Nc1ccc(OC[C@@H](O)CN2CCN(c3ccc(Cl)cc3)CC2)cc1`, the IC50 in test [1] turned out to be 46 nM; in test [3] it was 452 nM. In test [2], the Ratio IC50 is 9.8.
For `O=C1CCc2cc(OC[C@H](O)CN3CCN(c4ccc(C(F)(F)F)cc4)CC3)ccc2N1` [NP-10679], the results for the IC50 in test [1] and in test [3] were 23 nM and 142 nM, respectively. Further, the Ratio IC50 in test [2] was 6.2.
For `NC(=O)Nc1ccc(OC[C@@H](O)CN2CCN(c3ccc(Cl)c(Cl)c3)CC2)cc1`, in that order: 103 nM, 947 nM and 9.2.

Broadly, the IC50 is the concentration that inhibits the measured activity by half.
